Test results: US20110045100A1, “Antimalarial Quinolines and Methods of Use Thereof” (GEORGETOWN UNIVERSITY, priority 2008, published 2011)
Blank lines part the entries; values can stand above or below the molecule they belong to.

Experiments:
[1] = system: CQS (HB3, GCO3) and CQR (Dd2, FCB) strains of P. falciparum; assay: SYBR Green I antiplasmodial assay, several CQS and CQR strains; format: cell-based, Plasmodium falciparum; conditions: for activity vs. both CQR and CQS strains relative to 93: FIG. 23
Source text: (§1) Bennett T. N.; Paguio, M.; Gligorijevic, B.; Seudieu, C.; Kosar, A. D.; Davidson, E.; Roepe, P. D. Novel, rapid, and inexpensive cell-based quantification of antimalarial drug efficacy. Antimicrob. Agents Chemother. 2004, 48, 1807-1810; Smilkstein, M.; Sriwilaijaroen, N.; Kelly, J. X.; Wilairat, P.; Riscoe, M. Simple and inexpensive fluorescence-based technique for high-throughput antimalarial drug screening. Antimicrob. Agents Chemother. 2004, 48, 1803-1806; and Johnson, J. D.; Dennull, R. A.; Gerena, L.; Lopez-Sanchez, M.; Roncal, N. E.; Waters, N.C. Assessment and continued validation of the malaria SYBR green I-based fluorescence assay for use in malaria drug screening. Antimicrob. Agents Chemother. 2007, 51, 1926-1933. […] Drake, N. L.; Creech, H. J.; Garman, J. A.; Haywood, S. T.; Peck, R. M.; van Hook, J. O.; Walton, E. Synthetic antimalrials. The preparation of certain 4-aminoquinolines. J. Am. Chem. Soc. […] Trans. R. Soc. Trop. Med. Hyg. […] J. Parasitol. 1983, 69, 97-105. The selectivity index provides a quantitative measure of the antimalarial activity against CQR strains relative to that against sensitive strains and thus indicates promising drug discovery leads. […] This can be combined with the introduction of a third basic amino function which should further favor accumulation of the drug within the acidic food vacuole of the parasite.
Bennett T. N.; Paguio, M.; Gligorijevic, B.; Seudieu, C.; Kosar, A. D.; Davidson, E.; Roepe, P. D. Novel, rapid, and inexpensive cell-based quantification of antimalarial drug efficacy. Antimicrob. Agents Chemother. 2004, 48, 1807-1810; Smilkstein, M.; Sriwilaijaroen, N.; Kelly, J. X.; Wilairat, P.; Riscoe, M. Simple and inexpensive fluorescence-based technique for high-throughput antimalarial drug screening. Antimicrob. Agents Chemother. 2004, 48, 1803-1806; and Johnson, J. D.; Dennull, R. A.; Gerena, L.; Lopez-Sanchez, M.; Roncal, N. E.; Waters, N.C. Assessment and continued validation of the malaria SYBR green I-based fluorescence assay for use in malaria drug screening. Antimicrob. Agents Chemother. 2007, 51, 1926-1933.
Drug activities were assessed and IC50 were quantified essentially as described previously. Delarue, S.; Girault, S.; Maes, L.; Debreu-Fontaine, M. A.; Labaeid, M.; Grellier, P.; Sergheraert, C. Synthesis and in vitro and in vivo antimalarial activity of new 4-anilinoquinolines. J. Med. Chem. 2001, 44, 2827-2833; and O'Neill, P. M.; Willock, D. J.; Hawley, S. R.; Bray, P. G.; Storr, R. C.; Ward, S. A.; Park, B. K. Synthesis, antimalarial activity, and molecular modeling of tebuquine analogues. J. Med. Chem. 1997, 40, 437-448.

[2] = system: CQS and CQR strains of P. falciparum; conditions: cited from earlier work; for antimalarial activity against certain CQS and CQR strains relative to chloroquine, reported by Jensen: diastereomeric mixtures
[3] = system: Dd2 (chloroquine resistant strain of P. falciparum); assay: SYBR Green I antiplasmodial assay, strain Dd2; format: cell-based, Plasmodium falciparum; conditions: for activity against the CQ resistant strain Dd2 in comparison with CQ: compared with CQ
Source text: as §1
The antiplasmodial activity of these compounds was measured versus a CQS (HB3) and a CQR (Dd2) strain using a standardized, inexpensive assay based on SYBR Green I intercalation. Bennett T. N.; Paguio, M.; Gligorijevic, B.; Seudieu, C.; Kosar, A. D.; Davidson, E.; Roepe, P. D. Antimicrob. Agents Chemother. 2004, 48, 1807-1810; Smilkstein, M.; Sriwilaijaroen, N.; Kelly, J. X.; Wilairat, P.; Riscoe, M. Antimicrob. Agents Chemother. 2004, 48, 1803-1806; and Johnson, J. D.; Dennull, R. A.; Gerena, L.; Lopez-Sanchez, M.; Roncal, N. E.; Waters, N.C. Antimicrob. Agents Chemother. 2007, 51, 1926-1933. […] De, D.; Krogstad, F. M.; Cogswell, F. B.; Krogstad, D. J. Am. J. Trop. Med. Hyg. 1996, 55, 579-583. […] The basic tertiary amino function in the side chain is commonly believed to be crucial for the accumulation of the drug within the acidic food DV.
(§2) Drug activities were assessed and IC50 were quantified essentially as described previously. Delarue, S.; Girault, S.; Maes, L.; Debreu-Fontaine, M. A.; Labaeid, M.; Grellier, P.; Sergheraert, C. Synthesis and in vitro and in vivo antimalarial activity of new 4-anilinoquinolines. J. Med. Chem. 2001, 44, 2827-2833; and O'Neill, P. M.; Willock, D. J.; Hawley, S. R.; Bray, P. G.; Storr, R. C.; Ward, S. A.; Park, B. K. Synthesis, antimalarial activity, and molecular modeling of tebuquine analogues. J. Med. Chem. 1997, 40, 437-448. The aminoquinolines were diluted using complete media under sterile conditions and plated in a 96 well plate format. Sorbitol synchronized cultures were utilized with >95% of the parasites at the ring stage. Cultures were diluted to give a working stock of 0.5% parasitemia and 2% hematocrit (final hematocrit 1% & 0.5% Parasitemia). The plates were incubated for 72 h at 37° C. After 72 h, 50 μL of 10×SYBR green I dye was added to each well, and the plate was incubated for 1 h at 37° C. Fluorescence was measured at 530 nm (490 nm excitation) using a spectra geminiEM plate reader. Data analysis was performed using sigma plot 9.0 software after downloading data in Excel format.

[4] = system: FCB (CQR strain of P. falciparum); assay: SYBR Green I antiplasmodial assay, strain FCB; format: cell-based, Plasmodium falciparum; conditions: compared with CQ
Source text: as §1, §2

SMILES: CCN(CC)CC(CN(CC)CC)Oc1ccnc2cc(Cl)ccc12 [compound 101, 7-Chloro-4-(1′,3′-bis(diethylamino)-2′-propoxy)quinoline]
activity vs. both CQR and CQS strains relative to 93 [1]: significantly less active

SMILES: CCN(CC)CCCCC(CCCCN(CC)CC)Oc1ccnc2cc(Cl)ccc12 [compound 103, 7-Chloro-4-(1′,9′-bis(diethylamino)-5′-nonoxy)quinoline]
activity vs. both CQR and CQS strains relative to 93 [1]: improved activity

SMILES: CCN(CC)CCNc1ccnc2cc(Cl)ccc12 [compound 86, N-(7-Chloro-4-quinolyl)-N′,N′-diethyl-1,2-diaminoethane]
IC50 vs. CQR strains, earlier reports [2]: substantially lower IC50

SMILES: CCNCCCC(C)Nc1ccnc2cc(Cl)ccc12 (centres unmarked) [desethyl CQ, reference compound]
activity vs. some CQR strains relative to CQ, previous studies ([2]; some CQR strains): lower activity

SMILES: CCN(CC)CCCNc1ccnc2cc(Cl)ccc12 [compound 87, N-(7-Chloro-4-quinolyl)-N′,N′-diethyl-1,3-diaminopropane]
IC50 vs. CQR strains, earlier reports [2]: substantially lower IC50

SMILES: CCN(CCNc1ccnc2cc(Cl)ccc12)CCNS(=O)(=O)c1cccc2cccnc12 [compound 33]
activity against Dd2 in words [3]: relatively high activity

SMILES: CC(C)NC1CCCC(Nc2ccnc3cc(Cl)ccc23)C1 (centres unmarked) [16b, N-(7-Chloro-4-quinolyl)-N′-isopropyl-1,3-diaminocyclohexane]
activity against the CQ resistant strain Dd2 in comparison with CQ [3]: clearly superior activity

IC50 ([1]; Plasmodium falciparum, read-out: IC50 vs. CQR parasites): ~1000 nM
SMILES: CCN(CC)CCCCCOc1ccnc2cc(Cl)ccc12 [compound 94, O-(7-Chloro-4-quinolyl)-5-(N,N-diethylamino)pentanol]

SMILES: CCNC1CCC(N(CC)c2ccnc3cc(Cl)ccc23)CC1 (centres unmarked) [17a, N-(7-Chloro-4-quinolyl)-N,N′-diethyl-1,4-diaminocyclohexane]
activity against the CQ resistant strain Dd2 in comparison with CQ [3]: clearly superior activity | potency against FCB in comparison with CQ [4]: significantly more potent | antimalarial activity against certain CQS and CQR strains relative to chloroquine, reported by Jensen [2]: higher antimalarial activity

SMILES: NCCCN(C(=O)c1ccc(F)cc1NCc1ccccc1)c1ccnc2cc(Cl)ccc12 [compound 53, N-(7-Chloro-4-quinolyl)-N-(2-benzylamino-4-fluorobenzoyl)-1,3-diaminopropane]
activity against Dd2 compared with HB3 [3]: significantly more active against Dd2 than HB3

SMILES: CCN(CC)CCCN(CC)CCNc1ccnc2cc(Cl)ccc12 [5a, N-(7-Chloro-4-quinolyl)-N-ethyl-N-(3-diethylaminopropyl)-1,2-diaminoethane]
activity against the CQ resistant strain Dd2 in comparison with CQ [3]: clearly superior activity | potency against FCB in comparison with CQ [4]: significantly more potent

SMILES: CCNC1CCCC(N(CC)c2ccnc3cc(Cl)ccc23)C1 (centres unmarked) [16a, N-(7-Chloro-4-quinolyl)-N,N′-diethyl-1,3-diaminocyclohexane]
activity against the CQ resistant strain Dd2 in comparison with CQ [3]: clearly superior activity | antimalarial activity against certain CQS and CQR strains relative to chloroquine, reported by Jensen [2]: higher antimalarial activity

SMILES: CCNCCNc1ccnc2cc(Cl)ccc12 [compound 81, N-(7-Chloro-4-quinolyl)-N′-ethyl-1,2-diaminoethane]
IC50 vs. CQR strains, earlier reports [2]: high IC50

SMILES: CCN(CC)CCCN(CC)CCCNc1ccnc2cc(Cl)ccc12 [5b, N-(7-Chloro-4-quinolyl)-N-ethyl-N-(3-diethylaminopropyl)-1,3-diaminopropane]
activity against the CQ resistant strain Dd2 in comparison with CQ [3]: clearly superior activity | potency against FCB in comparison with CQ [4]: significantly more potent

SMILES: CC(C)NC1CCC(Nc2ccnc3cc(Cl)ccc23)CC1 (centres unmarked) [17b, N-(7-Chloro-4-quinolyl)-N′-isopropyl-1,4-diaminocyclohexane]
activity against the CQ resistant strain Dd2 in comparison with CQ [3]: clearly superior activity | potency against FCB in comparison with CQ [4]: significantly more potent

SMILES: CCN(CC)CCCN(CC)CCCCCNc1ccnc2cc(Cl)ccc12 [5d, N-(7-Chloro-4-quinolyl)-N-ethyl-N-(3-diethylaminopropyl)-1,5-diaminopentane]
activity against the CQ resistant strain Dd2 in comparison with CQ [3]: clearly superior activity | potency against FCB in comparison with CQ [4]: significantly more potent

SMILES: CCNCCCNc1ccnc2cc(Cl)ccc12 [compound 82, N-(7-Chloro-4-quinolyl)-N′-ethyl-1,3-diaminopropane]
IC50 vs. CQR strains, earlier reports [2]: high IC50

SMILES: CCN(CC)CCCN(CCCN)c1ccnc2cc(Cl)ccc12 [4b, N-(7-Chloro-4-quinolyl)-N-(3-diethylaminopropyl)-1,3-diaminopropane]
activity against the CQ resistant strain Dd2 in comparison with CQ [3]: clearly superior activity | potency against FCB in comparison with CQ [4]: significantly more potent
